Test results taken from ChEMBL document CHEMBL4619712, “Double-component diazeniumdiolate derivatives as anti-cancer agents” (Bioorg Med Chem, 2020).

Assays:
[1] = tested on: BT-474; assay: Anticancer activity against human BT474 cells assessed as inhibition of cell growth after 72 hrs by MTT or MTS assay; type: functional, cell-based; settings: BT-474, 72 h
[2] = tested on: Jurkat E6.1; assay: Anticancer activity against human Jurkat E6-1 cells assessed as inhibition of cell growth after 72 hrs by MTT or MTS assay; type: functional, cell-based; settings: Jurkat E6.1, 72 h
[3] = tested on: CCRF-CEM; assay: Anticancer activity against human CCRF-CEM cells assessed as inhibition of cell growth after 72 hrs by MTT or MTS assay; type: functional, cell-based
[4] = tested on: MDA-MB-231; assay: Anticancer activity against human MDA-MB-231 cells assessed as inhibition of cell growth after 72 hrs by MTT or MTS assay; type: functional, cell-based; settings: MDA-MB-231, 72 h
[5] = tested on: A549; assay: Anticancer activity against human A549 cells assessed as inhibition of cell growth after 72 hrs by MTT or MTS assay; type: functional, cell-based; settings: A549, 72 h
[6] = Prodrug conversion assessed as Escherichia coli GST catalyzed NO release at 1 uM measured after 5 hrs in presence of GSH by DAF-FM DA reagent based fluorescence spectrophotometric analysis; type: ADME

`O=[N+]([O-])c1ccc(O/N=[N+](\[O-])N2CCN(CCCN3CCN(/[N+]([O-])=N/Oc4ccc([N+](=O)[O-])cc4[N+](=O)[O-])CC3)CC2)c([N+](=O)[O-])c1` showed an IC50 [1] of 10.8 µM, an IC50 [2] of 4.06 µM and an IC50 [3] of 3.73 µM. For the same molecule, the IC50 [4] was over 20 µM, the IC50 [5] was 18.8 µM and the “fold change (FC)” value [6] was 2.
